Source: patent US20250281483A1, “TRANSCRIPTION FACTOR EB ACTIVATORS AND USES THEREOF” (Astellas Engineered Small Molecules US, Incorporated, priority 2022, published 2025)

Columns and labels:
TFEB = target: T1, TFEB (Homo sapiens, UniProt P19484); experiment: Tfeb-Translocation Assay HEK-293T-oEX-Tfeb-GFP Cell Line; format: cell-based; conditions: HEK-293T-oEX-TFEB-GFP cells; translocation positive cells ratio; read-out: TFEB Translocation EC50
T1 sequence (P19484 1-476): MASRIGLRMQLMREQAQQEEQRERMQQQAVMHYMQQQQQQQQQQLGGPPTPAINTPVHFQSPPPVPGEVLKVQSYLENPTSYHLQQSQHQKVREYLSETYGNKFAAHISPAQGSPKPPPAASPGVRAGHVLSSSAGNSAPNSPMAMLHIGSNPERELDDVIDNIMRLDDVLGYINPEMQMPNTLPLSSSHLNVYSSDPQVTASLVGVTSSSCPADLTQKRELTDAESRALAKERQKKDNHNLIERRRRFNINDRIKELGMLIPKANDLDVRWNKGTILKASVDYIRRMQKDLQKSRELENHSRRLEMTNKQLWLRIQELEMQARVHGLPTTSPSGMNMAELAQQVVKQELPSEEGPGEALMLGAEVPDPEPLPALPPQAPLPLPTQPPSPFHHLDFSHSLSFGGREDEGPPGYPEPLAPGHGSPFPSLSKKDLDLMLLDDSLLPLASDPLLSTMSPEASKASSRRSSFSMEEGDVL
Method: Tfeb-Translocation Assay HEK-293T-oEX-Tfeb-GFP Cell Line
• 1). Added 2×10^6 cell into a T75 flask with 15 mL DiVEM medium (with 10% FBS, 1% PS, 1×GLUTAMAX, 1×MEM NEAA, 1×HEPES Buffer Solution and 5 ug/mL blasticidin). • 2). Culturing for 48-72 hours. Cells in logarithmic growth phase were taken for experiment. The other cells were passaged as described in step 1. • 3). Seeded 1×10^4 cells/30 μL/well into 384-well plate (BD 356663). Cultured overnight at 37° C. & 5% CO2 incubator. • 4). Note: Used cells <10 passage
• 1). Compounds were firstly diluted by DMSO to the stock needed (10 mM), and aliquoted and stored at −20° C. • 2). Took one aliquot each time and made 3-fold or 2-fold dilutions as indicated, total 10 doses plus one DMSO control well in the source plate. • 3). Added 150 or 90 nL/well compounds solution to the assay plate by ECHO and incubated for 6 or 18 hours respectively at 37° C. & 5% CO2 incubator.
• 1). Added 30 uL 8% PFA into the wells and incubated 20 min at room temperature. • 2). Discarded the medium, washed the wells twice with DPBS to eliminate foam and bubbles in the well.
• 1). Diluted Hoechest-333824 in DPBS to get 2 μg/mL solution and added 30 uL/well into assay plate, incubated at room temperature for 20 mins. • 2). Discarded the supernatant, washed the wells twice with DPBS to eliminate foam and bubbles in the well. Then added DPBS 20 uL/well.
3). Scanned Plate by Operetta.
• 1). Reference compound: Torin 1 • 2). Test compounds: C1, C2, C3, C4, C5, C6. • 3). Diluted compounds in 384 LDV-dilution plate according to the dilution plate map • 4). Compounds starting concentration: Torin 1: 300 nM and Test compounds: 50 uM.
• 1). Selected all nucleus by Operetta as ‘All Cells’ • 2). Calculated the EGFP average intensity inside the Nucleus region. • 3). Selected population that the EGFP mean intensity inside the Nucleus region>background as the EGFP-positive cells • 4). Selected the Surrounding region of the nucleus and calculated the EGFP mean intensity of the region • 5). Inside the EGFP-positive cell population, selected the cells with EGFP mean intensity inside the Nucleus region/the EGFP mean intensity inside the surrounding region=1.2 (This ratio could be slightly adjusted from time to time) as the Translocation positive cell. • 6). Outputted the ratio of Translocation positive cell/EGFP-positive cells as the Translocation Positive Ratio. • 7). Each time set the ratio of DMSO group (Control Group) as ˜15% and then normalized the compound group to the DMSO group.

[1] = In Vitro Liver Microsomes Metabolic Stability Assay, mouse; format: in vitro ADME; conditions: mouse liver microsomes 0.5 mg/mL, 1 μM compound, NADPH, 0 and 30 min; scale-up CLint; read-out: CLint, Mouse LM
Method: (§1) In Vitro Liver Microsomes Metabolic Stability Assay of Different Species
(§2) 1. The liver microsomes were stored at −80° C. prior to use.
(§3) 2. The master solution was prepared according to Table 3.
(§4) 3. 40 μL of 10 mM NADPH solution was added to each well. The final concentrations of NADPH was 1 mM. The mixture was pre-warmed at 37° C. for 5 minutes. The negative control samples were prepared by replacing NADPH solutions with 40 μL of ultra-pure H2O. The negative control was used to exclude the misleading factor that resulted from instability of chemical itself. Samples with NADPH were prepared in duplicate. Negative controls were prepared in singlet.
(§5) 4. The reaction was started with the addition of 2 μL of 200 μM control compound or test compound solutions. Verapamil was used as positive control in this study. The final concentration of test compound or control compound was 1 μM.
(§6) 5. Aliquots of 50 μL were taken from the reaction solution at 0 and 30 minutes. The reaction was stopped by the addition of 4 volumes of cold acetonitrile with Internal Standard (100 nM alprazolam, 200 nM imipramine, 200 nM labetalol and 2 μM ketoprofen). Samples were centrifuged at 3, 220 g for 40 minutes. Aliquot of 90 μL of the supernatant was mixed with 90 μL of ultra-pure H2O and then used for LC-MS/MS analysis.
(§7) Peak areas were determined from extracted ion chromatograms. The slope value, k, was determined by linear regression of the natural logarithm of the remaining percentage of the parent drug vs. incubation time curve.
(§8) The in vitro half-life (in vitro t1/2) was determined from the slope value:
(§9) Conversion of the in vitro t1/2 (min) into the in vitro intrinsic clearance (in vitro CLint, in μL/min/mg protein) was done using the following equation (mean of duplicate determinations): […]
(§10) Conversion of the in vitro t1/2 (min) into the scale-up unbound intrinsic clearance (Scale-up CLint, in mL/min/kg) was done using the following equation (mean of duplicate determinations): […]

[2] = In Vitro Liver Microsomes Metabolic Stability Assay, rat; format: in vitro ADME; conditions: rat liver microsomes 0.5 mg/mL, 1 μM compound, NADPH, 0 and 30 min; scale-up CLint; read-out: CLint, Rat LM
Method: as §1, §2, §3, §4, §5, §6, §7, §8, §9, §10

[3] = In Vitro Liver Microsomes Metabolic Stability Assay, human; format: in vitro ADME; conditions: human liver microsomes 0.5 mg/mL, 1 μM compound, NADPH, 0 and 30 min; scale-up CLint; read-out: CLint, Human LM
Method: as §1, §2, §3, §4, §5, §6, §7, §8, §9, §10

EC50 (TFEB)	CLint scaled at 1 μM [1]	CLint scaled at 1 μM [2]	CLint scaled at 1 μM [3]	SMILES
< 0.1 µM	8.4 L/h/kg	2.52 L/h/kg		Cc1nc2ccn(Cc3ccc(Cl)cc3)c(=O)c2cc1C(=O)NCc1ccc(F)cn1 [Example 51, 6-(4-chlorobenzyl)-N-((5-fluoropyridin-2-yl)methyl)-2-methyl-5-oxo-5,6-dihydro-1,6-naphthyridine-3-carboxamide]
0.1 to 1 µM	8.4 L/h/kg	4.38 L/h/kg	0.24 L/h/kg	Cc1nc(CNC(=O)c2cc3c(=O)n(Cc4ccccc4)ccc3nc2C)co1 [Example 18, 6-benzyl-2-methyl-N-((2-methyloxazol-4-yl)methyl)-5-oxo-5,6-dihydro-1,6-naphthyridine-3-carboxamide]
< 0.1 µM	7.44 L/h/kg	4.2 L/h/kg	0.18 L/h/kg	Cc1nc2ccn(Cc3ccccc3)c(=O)c2cc1C(=O)NCc1cc(F)c(F)cn1 [Example 50, 6-benzyl-N-((4,5-difluoropyridin-2-yl)methyl)-2-methyl-5-oxo-5,6-dihydro-1,6-naphthyridine-3-carboxamide]
	56.3 L/h/kg	19.1 L/h/kg	4.62 L/h/kg	Cc1nc2ccn(Cc3ccco3)c(=O)c2cc1C(=O)NCC1CCC(Cl)CC1 (stereo not drawn) [Comparator 2, reference compound]
1 to 10 µM				COCCOCCOc1ccc(Cn2ccc3nc(C)c(C(=O)NCc4ccc(Cl)cn4)cc3c2=O)cc1 [Example 64, N-((5-chloropyridin-2-yl)methyl)-6-(4-(2-(2-methoxyethoxy)ethoxy)benzyl)-2-methyl-5-oxo-5,6-dihydro-1,6-naphthyridine-3-carboxamide]
< 0.1 µM				Cc1nc2ccn(Cc3ccc(F)c(F)c3)c(=O)c2cc1C(=O)NCc1ccc(F)cn1 [Example 63, 6-(3,4-difluorobenzyl)-N-((5-fluoropyridin-2-yl)methyl)-2-methyl-5-oxo-5,6-dihydro-1,6-naphthyridine-3-carboxamide]
1 to 10 µM				Cc1nc2ccn(Cc3ccccn3)c(=O)c2cc1C(=O)NCc1ccccn1 [Example 41, 2-methyl-5-oxo-N,6-bis(pyridin-2-ylmethyl)-5,6-dihydro-1,6-naphthyridine-3-carboxamide]
1 to 10 µM				Cc1nc2ccn(Cc3ccccc3)c(=O)c2cc1C(=O)NCc1cn(C)nn1 [Example 8, 6-benzyl-2-methyl-N-((1-methyl-11H-1,2,3-triazol-4-yl)methyl)-5-oxo-5,6-dihydro-1,6-naphthyridine-3-carboxamide]
1 to 10 µM				Cc1nc2ccn(CC34CC(C3)C4)c(=O)c2cc1C(=O)NCc1ccccn1 [Example 60, 6-(bicyclo[1.1.1]pentan-1-ylmethyl)-2-methyl-5-oxo-N-(pyridin-2-ylmethyl)-5,6-dihydro-1,6-naphthyridine-3-carboxamide]
0.1 to 1 µM				Cc1nc2ccn(Cc3ccccc3)c(=O)c2cc1C(=O)NCc1cccs1 [Example 71, 6-benzyl-2-methyl-5-oxo-N-(thiophen-2-ylmethyl)-5,6-dihydro-1,6-naphthyridine-3-carboxamide]
< 0.1 µM				Cc1nc2ccn(Cc3cccc(F)c3)c(=O)c2cc1C(=O)NCc1ccccn1 [Example 55, 6-(3-fluorobenzyl)-2-methyl-5-oxo-N-(pyridin-2-ylmethyl)-5,6-dihydro-1,6-naphthyridine-3-carboxamide]
≥ 10 µM				Cc1cnc(Cn2ccc3nc(C)c(C(=O)NCc4ccccn4)cc3c2=O)o1 [Example 48, 2-methyl-6-((5-methyloxazol-2-yl)methyl)-5-oxo-N-(pyridin-2-ylmethyl)-5,6-dihydro-1,6-naphthyridine-3-carboxamide]
1 to 10 µM				Cc1nc2ccn(-c3ccccc3)c(=O)c2cc1C(=O)NCc1ccccn1 [Example 46, 2-methyl-5-oxo-6-phenyl-N-(pyridin-2-ylmethyl)-5,6-dihydro-1,6-naphthyridine-3-carboxamide]
1 to 10 µM				Cc1nc(CNC(=O)c2cc3c(=O)n(Cc4ccccc4)ccc3nc2C)no1 [Example 19, 6-benzyl-2-methyl-N-((5-methyl-1,2,4-oxadiazol-3-yl)methyl)-5-oxo-5,6-dihydro-1,6-naphthyridine-3-carboxamide]
≥ 10 µM				Cc1nc2ccn(Cc3ccncc3)c(=O)c2cc1C(=O)NCc1ccccn1 [Example 52, 2-methyl-5-oxo-N-(pyridin-2-ylmethyl)-6-(pyridin-4-ylmethyl)-5,6-dihydro-1,6-naphthyridine-3-carboxamide]
≥ 10 µM				COCCOCCOCCn1ccc2nc(C)c(C(=O)NCc3ccc(Cl)cn3)cc2c1=O [Example 59, N-((5-chloropyridin-2-yl)methyl)-6-(2-(2-(2-methoxyethoxy)ethoxy)ethyl)-2-methyl-5-oxo-5,6-dihydro-1,6-naphthyridine-3-carboxamide]
0.1 to 1 µM				Cc1ccc(CNC(=O)c2cc3c(=O)n(Cc4ccc(F)cn4)ccc3nc2C)o1 [Example 2, 6-((5-fluoropyridin-2-yl)methyl)-2-methyl-N-((5-methylfuran-2-yl)methyl)-5-oxo-5,6-dihydro-1,6-naphthyridine-3-carboxamide]
1 to 10 µM				Cc1nnc(CNC(=O)c2cc3c(=O)n(Cc4ccccc4)ccc3nc2C)o1 [Example 13, 6-benzyl-2-methyl-N-((5-methyl-1,3,4-oxadiazol-2-yl)methyl)-5-oxo-5,6-dihydro-1,6-naphthyridine-3-carboxamide]
< 0.1 µM				Cc1nc(CNC(=O)c2cc3c(=O)n(Cc4ccc(F)cc4)ccc3nc2C)co1 [Example 78, 6-(4-fluorobenzyl)-2-methyl-N-((2-methyloxazol-4-yl)methyl)-5-oxo-5,6-dihydro-1,6-naphthyridine-3-carboxamide]
0.1 to 1 µM				COCCn1ccc2nc(C)c(C(=O)NCc3ccc(C)o3)cc2c1=O [Example 72, 6-(2-methoxyethyl)-2-methyl-N-((5-methylfuran-2-yl)methyl)-5-oxo-5,6-dihydro-1,6-naphthyridine-3-carboxamide]
